Converted amounts (≈) assume the structure as drawn. Square brackets hold non-standard residues; d marks the D form. Peptide text beside a SMILES is read from it.
test system: Mycobacterium tuberculosis; assay: Antitubercular activity against Mycobacterium tuberculosis H37Ra assessed as bacterial growth inhibition relative to parent compound; type: functional

CC(C)[C@H]1NC(=O)[C@H](Cc2ccccc2)NC(=O)[C@@H](C(C)C)NC(=O)[C@@H](C)NC(=O)[C@H](COC(=O)/C=C/c2ccc(F)c(F)c2)NC(=O)[C@@H](Cc2c[nH]c3ccccc23)NC(=O)[C@@H](COC(=O)/C=C/c2ccc(F)c(F)c2)NC1=O and Cc1ccc(/C=C/C(=O)OC[C@@H]2NC(=O)[C@@H](Cc3c[nH]c4ccccc34)NC(=O)[C@@H](COC(=O)/C=C/c3ccc(C)cc3)NC(=O)[C@@H](C(C)C)NC(=O)[C@H](Cc3ccccc3)NC(=O)[C@@H](C(C)C)NC(=O)[C@@H](C)NC2=O)cc1 are the same in “fold change (FC)” value: 10 for the first, 10 for the second.

COc1ccc(/C=C/C(=O)OC[C@H]2NC(=O)[C@@H](C(C)C)NC(=O)[C@H](Cc3ccccc3)NC(=O)[C@@H](C(C)C)NC(=O)[C@@H](C)NC(=O)[C@H](CO)NC(=O)[C@@H](Cc3c[nH]c4ccccc34)NC2=O)cc1 and Cc1ccccc1/C=C/C(=O)OC[C@@H]1NC(=O)[C@@H](Cc2c[nH]c3ccccc23)NC(=O)[C@@H](COC(=O)/C=C/c2ccccc2C)NC(=O)[C@@H](C(C)C)NC(=O)[C@H](Cc2ccccc2)NC(=O)[C@@H](C(C)C)NC(=O)[C@@H](C)NC1=O are the same in “fold change (FC)” value: 10 for the first, 10 for the second.

test system: Mycobacterium tuberculosis; assay: Antitubercular activity against Mycobacterium tuberculosis H37Ra assessed as bacterial growth inhibition; type: functional

First: COc1cc(/C=C/C(=O)OC[C@H]2NC(=O)[C@@H](C(C)C)NC(=O)[C@H](Cc3ccccc3)NC(=O)[C@@H](C(C)C)NC(=O)[C@@H](C)NC(=O)[C@H](CO)NC(=O)[C@@H](Cc3c[nH]c4ccccc34)NC2=O)ccc1OCc1ccccc1
Second: CC(C)[C@H]1NC(=O)[C@H](Cc2ccccc2)NC(=O)[C@@H](C(C)C)NC(=O)[C@@H](C)NC(=O)[C@H](CO)NC(=O)[C@@H](Cc2c[nH]c3ccccc23)NC(=O)[C@@H](COC(=O)/C=C/c2ccccc2)NC1=O
The MIC of the first is lower: 50 µM (≈ 52.2 µg/mL) for the first, > 100 µM for the second.

First: CC(C)[C@H]1NC(=O)[C@H](Cc2ccccc2)NC(=O)[C@@H](C(C)C)NC(=O)[C@@H](C)NC(=O)[C@H](COC(=O)/C=C/c2ccc(C(F)(F)F)cc2)NC(=O)[C@@H](Cc2c[nH]c3ccccc23)NC(=O)[C@@H](COC(=O)/C=C/c2ccc(C(F)(F)F)cc2)NC1=O
Second: CC(C)[C@H]1NC(=O)[C@H](Cc2ccccc2)NC(=O)[C@@H](C(C)C)NC(=O)[C@@H](C)NC(=O)[C@H](COC(=O)/C=C/c2ccc(F)cc2)NC(=O)[C@@H](Cc2c[nH]c3ccccc23)NC(=O)[C@@H](COC(=O)/C=C/c2ccc(F)cc2)NC1=O
The MIC of the first is 2-fold higher: 100 µM (≈ 117 µg/mL) for the first, 50 µM (≈ 53.7 µg/mL) for the second.

First: CC(C)[C@H]1NC(=O)[C@H](Cc2ccccc2)NC(=O)[C@@H](C(C)C)NC(=O)[C@@H](C)NC(=O)[C@H](COC(=O)/C=C/c2ccc(N(C)C)cc2)NC(=O)[C@@H](Cc2c[nH]c3ccccc23)NC(=O)[C@@H](COC(=O)/C=C/c2ccc(N(C)C)cc2)NC1=O
Second: Cc1ccc(/C=C/C(=O)OC[C@@H]2NC(=O)[C@@H](Cc3c[nH]c4ccccc34)NC(=O)[C@@H](COC(=O)/C=C/c3ccc(C)cc3)NC(=O)[C@@H](C(C)C)NC(=O)[C@H](Cc3ccccc3)NC(=O)[C@@H](C(C)C)NC(=O)[C@@H](C)NC2=O)cc1
The MIC of the first is 4-fold higher: 50 µM (≈ 56.2 µg/mL) for the first, 12.5 µM (≈ 13.3 µg/mL) for the second.

CC(C)[C@H]1NC(=O)CNC(=O)[C@H](C)NC(=O)[C@@H](Cc2c[nH]c3ccccc23)NC(=O)[C@@H](CO)NC(=O)[C@@H](C(C)C)NC(=O)[C@H](Cc2ccccc2)NC1=O and CC(C)[C@H]1NC(=O)CNC(=O)[C@H](CO)NC(=O)[C@@H](Cc2c[nH]c3ccccc23)NC(=O)[C@@H](C)NC(=O)[C@@H](C(C)C)NC(=O)[C@H](Cc2ccccc2)NC1=O are the same in MIC: 100 µM (≈ 74.7 µg/mL) for the first, 100 µM (≈ 74.7 µg/mL) for the second.

First: CC(C)[C@H]1NC(=O)[C@H](Cc2ccccc2)NC(=O)[C@@H](C(C)C)NC(=O)[C@@H](C)NC(=O)[C@H](COC(=O)/C=C/c2cccc(Cl)c2)NC(=O)[C@@H](Cc2c[nH]c3ccccc23)NC(=O)[C@@H](COC(=O)/C=C/c2cccc(Cl)c2)NC1=O
Second: CC(C)[C@H]1NC(=O)[C@H](Cc2ccccc2)NC(=O)[C@@H](C(C)C)NC(=O)[C@@H](C)NC(=O)[C@H](COC(=O)/C=C/c2ccc(Cl)cc2)NC(=O)[C@@H](Cc2c[nH]c3ccccc23)NC(=O)[C@@H](COC(=O)/C=C/c2ccc(Cl)cc2)NC1=O
The MIC of the first is 2-fold higher: 100 µM (≈ 111 µg/mL) for the first, 50 µM (≈ 55.3 µg/mL) for the second.

Compared with CC(C)[C@H]1NC(=O)[C@H](Cc2ccccc2)NC(=O)[C@@H](C(C)C)NC(=O)[C@@H](C)NC(=O)[C@H](COC(=O)/C=C/c2ccccc2)NC(=O)[C@@H](Cc2c[nH]c3ccccc23)NC(=O)[C@@H](COC(=O)/C=C/c2ccccc2)NC1=O, CC(C)[C@H]1NC(=O)[C@H](Cc2ccccc2)NC(=O)[C@@H](C(C)C)NC(=O)[C@@H](C)NC(=O)[C@H](COC(=O)/C=C/c2ccccc2Cl)NC(=O)[C@@H](Cc2c[nH]c3ccccc23)NC(=O)[C@@H](COC(=O)/C=C/c2ccccc2Cl)NC1=O is lower in MIC: > 100 µM for the first, 50 µM (≈ 55.3 µg/mL) for the second.

COc1cc(/C=C/C(=O)OC[C@@H]2NC(=O)[C@@H](Cc3c[nH]c4ccccc34)NC(=O)[C@@H](COC(=O)/C=C/c3ccc(OCc4ccccc4)c(OC)c3)NC(=O)[C@@H](C(C)C)NC(=O)[C@H](Cc3ccccc3)NC(=O)[C@@H](C(C)C)NC(=O)[C@@H](C)NC2=O)ccc1OCc1ccccc1 and COc1ccc(/C=C/C(=O)OC[C@@H]2NC(=O)[C@@H](Cc3c[nH]c4ccccc34)NC(=O)[C@@H](COC(=O)/C=C/c3ccc(OC)c(OC)c3)NC(=O)[C@@H](C(C)C)NC(=O)[C@H](Cc3ccccc3)NC(=O)[C@@H](C(C)C)NC(=O)[C@@H](C)NC2=O)cc1OC are the same in MIC: 100 µM (≈ 131 µg/mL) for the first, 100 µM (≈ 116 µg/mL) for the second.

Going from CC(C)[C@H]1NC(=O)[C@H](Cc2ccccc2)NC(=O)[C@@H](C(C)C)NC(=O)[C@@H](C)NC(=O)[C@H](C)NC(=O)[C@@H](Cc2c[nH]c3ccccc23)NC(=O)[C@@H](C)NC1=O (cyclo([dV][dA][dW]A[dA][dV]F)) to CC(C)[C@H]1NC(=O)[C@H](Cc2ccccc2)NC(=O)[C@@H](C(C)C)NC(=O)[C@@H](C)NC(=O)[C@H](CO)NC(=O)[C@@H](Cc2c[nH]c3ccccc23)NC(=O)[C@@H](CO)NC1=O (cyclo([dV][dS][dW]S[dA][dV]F)), the MIC rises from 100 µM (≈ 74.5 µg/mL) to > 100 µM.

Going from CC(C)[C@H]1NC(=O)[C@H](Cc2ccccc2)NC(=O)[C@@H](C(C)C)NC(=O)[C@@H](C)NC(=O)[C@H](COC(=O)/C=C/c2ccc(F)c(F)c2)NC(=O)[C@@H](Cc2c[nH]c3ccccc23)NC(=O)[C@@H](COC(=O)/C=C/c2ccc(F)c(F)c2)NC1=O to COc1ccc(/C=C/C(=O)OC[C@@H]2NC(=O)[C@@H](Cc3c[nH]c4ccccc34)NC(=O)[C@@H](COC(=O)/C=C/c3ccc(OC)cc3)NC(=O)[C@@H](C(C)C)NC(=O)[C@H](Cc3ccccc3)NC(=O)[C@@H](C(C)C)NC(=O)[C@@H](C)NC2=O)cc1, the MIC rises from 12.5 µM (≈ 13.9 µg/mL) to 100 µM (≈ 110 µg/mL) (8-fold).

Going from COc1ccc(/C=C/C(=O)OC[C@H]2NC(=O)[C@@H](C(C)C)NC(=O)[C@H](Cc3ccccc3)NC(=O)[C@@H](C(C)C)NC(=O)[C@@H](C)NC(=O)[C@H](CO)NC(=O)[C@@H](Cc3c[nH]c4ccccc34)NC2=O)cc1 to CC(C)[C@H]1NC(=O)[C@H](Cc2ccccc2)NC(=O)[C@@H](C(C)C)NC(=O)[C@@H](C)NC(=O)[C@H](CO)NC(=O)[C@@H](Cc2c[nH]c3ccccc23)NC(=O)[C@@H](COC(=O)/C=C/c2ccc(N(C)C)cc2)NC1=O, the MIC rises from 12.5 µM (≈ 11.7 µg/mL) to 50 µM (≈ 47.5 µg/mL) (4-fold).

First: NNC(=O)c1ccncc1 [ISONIAZID]
Second: CC(C)[C@H]1NC(=O)CNC(=O)[C@H](CO)NC(=O)[C@@H](Cc2c[nH]c3ccccc23)NC(=O)[C@@H](CO)NC(=O)[C@@H](C(C)C)NC(=O)[C@H](Cc2ccccc2)NC1=O (cyclo([dV][dS][dW]SG[dV]F))
The MIC of the first is 8000-fold lower: 0.0125 µM (≈ 0.00171 µg/mL) for the first, 100 µM (≈ 76.3 µg/mL) for the second.

First: COc1cc(Br)c(/C=C/C(=O)OC[C@H]2NC(=O)[C@@H](C(C)C)NC(=O)[C@H](Cc3ccccc3)NC(=O)[C@@H](C(C)C)NC(=O)[C@@H](C)NC(=O)[C@H](CO)NC(=O)[C@@H](Cc3c[nH]c4ccccc34)NC2=O)cc1OC
Second: COc1cc(Br)c(/C=C/C(=O)OC[C@@H]2NC(=O)[C@@H](Cc3c[nH]c4ccccc34)NC(=O)[C@@H](COC(=O)/C=C/c3cc(OC)c(OC)cc3Br)NC(=O)[C@@H](C(C)C)NC(=O)[C@H](Cc3ccccc3)NC(=O)[C@@H](C(C)C)NC(=O)[C@@H](C)NC2=O)cc1OC
The MIC of the first is 2-fold lower: 50 µM (≈ 52.3 µg/mL) for the first, 100 µM (≈ 132 µg/mL) for the second.

First: CO[C@H]1/C=C/O[C@@]2(C)Oc3c(C)c(O)c4c(O)c(c(/C=N/N5CCN(C)CC5)c(O)c4c3C2=O)NC(=O)/C(C)=C\C=C\[C@H](C)[C@H](O)[C@@H](C)[C@@H](O)[C@@H](C)[C@H](OC(C)=O)[C@@H]1C [RIFAMPIN]
Second: Cc1ccccc1/C=C/C(=O)OC[C@@H]1NC(=O)[C@@H](Cc2c[nH]c3ccccc23)NC(=O)[C@@H](COC(=O)/C=C/c2ccccc2C)NC(=O)[C@@H](C(C)C)NC(=O)[C@H](Cc2ccccc2)NC(=O)[C@@H](C(C)C)NC(=O)[C@@H](C)NC1=O
The MIC of the first is 2000-fold lower: 0.00625 µM (≈ 0.00514 µg/mL) for the first, 12.5 µM (≈ 13.3 µg/mL) for the second.

From ChEMBL document CHEMBL4813928, “Targeted Isolation of Asperheptatides from a Coral-Derived Fungus Using LC-MS/MS-Based Molecular Networking and Antitubercular Activities of Modified Cinnamate Derivatives” (2021)
